Laboratory results as given in ChEMBL document CHEMBL1147265, “Lucidenic acids P and Q, methyl lucidenate P, and other triterpenoids from the fungus Ganoderma lucidum and their inhibitory effects on Epstein-Barr virus activation” (J Nat Prod, 2003).
Values belong to the molecule of their own block, whether it stands above or below them.

What was measured:
[1] = Cytotoxicity against human Raji cells assessed as cell viability at 1000 molar ratio by trypan blue staining method; type: cell-based; settings: read-out: Activity
Raji [2] = test: Inhibition of 12-O-tetradecanoylphorbol-13-acetate-induced EBV-early antigen activation in human Raji cells assessed as EA induction at 10 molar ratio relative to 12-O-tetradecanoylphorbol-13-acetate by immunofluorescence technique; type: cell-based; design: scale not given: the % may be the effect or the level left; settings: human gammaherpesvirus 4
Raji [3] = test: Inhibition of 12-O-tetradecanoylphorbol-13-acetate-induced EBV-early antigen activation in human Raji cells assessed as EA induction at 100 molar ratio relative to 12-O-tetradecanoylphorbol-13-acetate by immunofluorescence technique; type: cell-based; design: scale not given: the % may be the effect or the level left; settings: human gammaherpesvirus 4
[4] = Inhibition of 12-O-tetradecanoylphorbol-13-acetate-induced EBV-early antigen activation in human Raji cells assessed per 32 pmol TPA by immunofluorescence technique; type: cell-based, human gammaherpesvirus 4
Raji [5] = test: Inhibition of 12-O-tetradecanoylphorbol-13-acetate-induced EBV-early antigen activation in human Raji cells assessed as EA induction at 1000 molar ratio relative to 12-O-tetradecanoylphorbol-13-acetate by immunofluorescence technique; type: cell-based; design: scale not given: the % may be the effect or the level left; settings: human gammaherpesvirus 4
Raji [6] = test: Inhibition of 12-O-tetradecanoylphorbol-13-acetate-induced EBV-early antigen activation in human Raji cells assessed as EA induction at 500 molar ratio relative to 12-O-tetradecanoylphorbol-13-acetate by immunofluorescence technique; type: cell-based; design: scale not given: the % may be the effect or the level left; settings: human gammaherpesvirus 4

IC50 [4]: 287 molar ratio
Structure (SMILES): CC(=O)O[C@@H]1C(=O)C2=C(C(=O)C[C@H]3C(C)(C)C(=O)CC[C@]23C)[C@]2(C)C(=O)C[C@H]([C@H](C)CCC(=O)O)[C@@]12C [LUCIDENIC ACID D2]
viability at 1000 molar ratio [1]: 70%
Activity (Raji [2]): 96.1%
Activity (Raji [3]): 73.8%
Activity (Raji [5]): 2%
Activity (Raji [6]): 26.1%

IC50 [4]: 284 molar ratio
Structure (SMILES): C[C@H](CCC(=O)O)[C@H]1CC(=O)[C@@]2(C)C3=C(C(=O)[C@@H](O)[C@]12C)[C@@]1(C)CC[C@H](O)C(C)(C)[C@@H]1C[C@@H]3O [LUCIDENIC ACID C]
viability at 1000 molar ratio [1]: 70%
Activity (Raji [2]): 93.1%
Activity (Raji [3]): 72.6%
Activity (Raji [5]): -0%
Activity (Raji [6]): 24%

Structure (SMILES): C[C@H](CC(=O)C[C@@H](C)[C@H]1CC(=O)[C@@]2(C)C3=C(C(=O)C[C@]12C)[C@@]1(C)CCC(=O)C(C)(C)[C@@H]1CC3=O)C(=O)O [GANODERIC ACID E]
viability at 1000 molar ratio [1]: 70%
Activity (Raji [2]): 97.4%
Activity (Raji [3]): 79%
IC50 [4]: 281 molar ratio
Activity (Raji [5]): -0%
Activity (Raji [6]): 28.3%

IC50 [4]: 280 molar ratio
Structure (SMILES): C[C@H](CCC(=O)O)[C@H]1CC(=O)[C@@]2(C)C3=C(C(=O)C[C@]12C)[C@@]1(C)CCC(=O)C(C)(C)[C@@H]1C[C@@H]3O [LUCIDENIC ACID A]
viability at 1000 molar ratio [1]: 70%
Activity (Raji [2]): 96.1%
Activity (Raji [3]): 73%
Activity (Raji [5]): -0%
Activity (Raji [6]): 22.7%

IC50 [4]: 283 molar ratio
Structure (SMILES): COC(=O)CC[C@@H](C)[C@H]1C[C@H](O)[C@@]2(C)C3=C(C(=O)C[C@]12C)[C@@]1(C)CCC(=O)C(C)(C)[C@@H]1C[C@@H]3O [METHYL LUCIDENATE Q]
viability at 1000 molar ratio [1]: 70%
Activity (Raji [2]): 95.4%
Activity (Raji [3]): 73.7%
Activity (Raji [5]): -0%
Activity (Raji [6]): 24.6%

IC50 [4]: 288 molar ratio
Structure (SMILES): COC(=O)CC[C@@H](C)[C@H]1CC(=O)[C@@]2(C)C3=C(C(=O)[C@@H](OC(C)=O)[C@]12C)[C@@]1(C)CC[C@H](O)C(C)(C)[C@@H]1CC3=O [METHYL LUCIDENATE E2]
viability at 1000 molar ratio [1]: 70%
Activity (Raji [2]): 95.4%
Activity (Raji [3]): 76%
Activity (Raji [5]): 1.2%
Activity (Raji [6]): 27.9%

IC50 [4]: 293 molar ratio
Structure (SMILES): COC(=O)CC[C@@H](C)[C@H]1CC(=O)[C@@]2(C)C3=C(C(=O)[C@@H](OC(C)=O)[C@]12C)[C@@]1(C)CC[C@H](O)C(C)(C)[C@@H]1C[C@@H]3O [METHYL LUCIDENATE P]
viability at 1000 molar ratio [1]: 70%
Activity (Raji [2]): 97.6%
Activity (Raji [3]): 77.4%
Activity (Raji [5]): 2.3%
Activity (Raji [6]): 28.9%

IC50 [4]: 286 molar ratio
Structure (SMILES): CC(=O)O[C@@H]1C(=O)C2=C([C@@H](O)C[C@H]3C(C)(C)[C@@H](O)CC[C@]23C)[C@]2(C)C(=O)C[C@H]([C@H](C)CCC(=O)O)[C@@]12C [LUCIDENIC ACID P]
viability at 1000 molar ratio [1]: 70%
Activity (Raji [2]): 96.6%
Activity (Raji [3]): 74.2%
Activity (Raji [5]): -0%
Activity (Raji [6]): 27.5%

IC50 [4]: 285 molar ratio
Structure (SMILES): COC(=O)CC[C@@H](C)[C@H]1CC(=O)[C@@]2(C)C3=C(C(=O)C[C@]12C)[C@@]1(C)CCC(=O)C(C)(C)[C@@H]1CC3=O [METHYL LUCIDENATE F]
viability at 1000 molar ratio [1]: 70%
Activity (Raji [2]): 98.3%
Activity (Raji [3]): 75.4%
Activity (Raji [5]): 2.1%
Activity (Raji [6]): 26.8%

IC50 [4]: 400 molar ratio
Structure (SMILES): CC1=C(/C=C/C(C)=C/C=C/C(C)=C/C=C/C=C(C)/C=C/C=C(C)/C=C/C2=C(C)CCCC2(C)C)C(C)(C)CCC1 [BETA CAROTENE]
Activity (Raji [2]): 100%
Activity (Raji [5]): 8.6%

IC50 [4]: 287 molar ratio
Structure (SMILES): COC(=O)CC[C@@H](C)[C@H]1CC(=O)[C@@]2(C)C3=C(C(=O)C[C@]12C)[C@@]1(C)CCC(=O)C(C)(C)[C@@H]1C[C@@H]3O [METHYL LUCIDENATE A]
viability at 1000 molar ratio [1]: 70%
Activity (Raji [2]): 95%
Activity (Raji [3]): 75.1%
Activity (Raji [5]): -0%
Activity (Raji [6]): 24.9%

IC50 [4]: 289 molar ratio
Structure (SMILES): COC(=O)C(C)CC(=O)C[C@@H](C)[C@H]1CC(=O)[C@@]2(C)C3=C(C(=O)[C@@H](OC(C)=O)[C@]12C)[C@@]1(C)CCC(=O)C(C)(C)[C@@H]1CC3=O (some centres undefined) [METHYL GANODERATE F]
viability at 1000 molar ratio [1]: 70%
Activity (Raji [2]): 100%
Activity (Raji [3]): 75.3%
Activity (Raji [5]): 2.3%
Activity (Raji [6]): 26.4%

IC50 [4]: 281 molar ratio
Structure (SMILES): CC(=O)OC1C[C@H]([C@H](C)CC/C=C(/C)C(=O)O)[C@@]2(C)CC=C3C(=CC[C@H]4C(C)(C)C(=O)CC[C@]34C)[C@]12C (some centres undefined)
viability at 1000 molar ratio [1]: 70%
Activity (Raji [2]): 95.3%
Activity (Raji [3]): 74.6%
Activity (Raji [5]): -0%
Activity (Raji [6]): 26.4%

IC50 [4]: 290 molar ratio
Structure (SMILES): COC(=O)CC[C@@H](C)[C@H]1CC(=O)[C@@]2(C)C3=C(C(=O)[C@@H](OC(C)=O)[C@]12C)[C@@]1(C)CCC(=O)C(C)(C)[C@@H]1CC3=O [METHYL LUCIDENATE D2]
viability at 1000 molar ratio [1]: 70%
Activity (Raji [2]): 98%
Activity (Raji [3]): 76.9%
Activity (Raji [5]): 2.2%
Activity (Raji [6]): 29.3%

IC50 [4]: 275 molar ratio
Structure (SMILES): COC(=O)CC[C@@H](C)[C@H]1CC(=O)[C@@]2(C)C3=C(C(=O)[C@@H](O)[C@]12C)[C@@]1(C)CC[C@H](O)C(C)(C)[C@@H]1CC3=O [METHYL LUCIDENATE L]
viability at 1000 molar ratio [1]: 70%
Activity (Raji [2]): 92.6%
Activity (Raji [3]): 71.9%
Activity (Raji [5]): -0%
Activity (Raji [6]): 21.7%

IC50 [4]: 280 molar ratio
Structure (SMILES): CC(=O)O[C@@H]1C(=O)C2=C(C(=O)C[C@H]3C(C)(C)[C@@H](O)CC[C@]23C)[C@]2(C)C(=O)C[C@H]([C@H](C)CCC(=O)O)[C@@]12C [LUDICENIC ACID E2]
viability at 1000 molar ratio [1]: 70%
Activity (Raji [2]): 94%
Activity (Raji [3]): 73.1%
Activity (Raji [5]): -0%
Activity (Raji [6]): 23.5%

Structure (SMILES): CC(=O)O[C@@H]1C(=O)C2=C(C(=O)C[C@H]3C(C)(C)C(=O)CC[C@]23C)[C@]2(C)C(=O)C[C@H]([C@H](C)CC(=O)CC(C)C(=O)O)[C@@]12C (some centres undefined) [GANODERIC ACID F]
viability at 1000 molar ratio [1]: 70%
Activity (Raji [2]): 98.7%
Activity (Raji [3]): 77.1%
IC50 [4]: 293 molar ratio
Activity (Raji [5]): 3.6%
Activity (Raji [6]): 28.5%
